Assay results published in US6893829B2, “Human leukocyte 12-lipoxygenase and its role in the pathogenesis of disease states” (City of Hope, priority 1992, dated 2005).
One block for each compound: values may come before it.

Legend:
[1] = tested on: MO binding to HAEC; experiment: Monocyte binding to human aortic endothelial cells; type: cell-based
Method: The rate of atherosclerosis is accelerated in humans with diabetes mellitus (DM). Applicants recently published evidence that high glucose (HG) exposure of human aortic endothelial cells (HAEC) selectively increases monocyte (MO) but not neutrophil binding (56). HG exposure to EC can increase arachidonic acid (AA) release and lipoxygenase (LO) production formation. In the current study, applicants evaluated the role of 12- and 15-LO products in MO binding to HAEC. Culture of HAEC in HG (25 mM) for two passages increased MO binding compared to cells maintained in 5.5 mM glucose (239±30 cells/field HG vs 111±7, p<0.01). Phenidone (10^−6M), an inhibitor of the 12-LO pathway (50 percent inhibition of HG-induced binding, p<0.05). […] 12(S)-HETE added to HAEC cultured in 5.5 mM glucose increased MO binding (66±6 cells/field control vs 114±4 12-HETE 10^−10M, p<0.01). […] In summary, (1) elevated glucose increases MO binding to HAEC and this effect can be reduced by blockade of the LO pathway; (2) 12 but not 15-LO products, can increase MO binding.

[2] = tested on: MAP kinase activity; experiment: AII- and 12-HETE-induced mitogenic (MAP kinase) activities with 12-LO inhibitors; type: cell-based, Chinese hamster
Method: It has been discovered that the administration of AII results in biphasic activation of MAP kinase (all of the MAP kinase experiments were conducted in CHO-AT1a cells—AII receptor AT1a cDNA transfected Chinese hamster ovary cells). […] Thus, the administration of a 12-LO inhibitor decreases AII- and/or 12-HETE-induced MAP kinase activity, thereby decreasing the effects which AII and/or 12-HETE have on cell growth and development.

[3] = tested on: MCF-7 cells; experiment: Proliferation of MCF-7 cells; type: cell-based, human; details: baicalein 10 μM, CDC 10^−5M, NDGA 30 μM, ibuprofen 10^−5M
[4] = tested on: VEGF in vascular smooth muscle cells (VSMC); experiment: VEGF protein, mRNA and secretion in VSMC (Western, Northern, EIA); type: cell-based, Porcine and human
Method: In addition to the work reflected in FIGS. 8-10, it has now been discovered that AII, 12-HETE and hyperglycemia (HG) increase VEGF production in vascular smooth muscle cells (VSMC). Porcine and human VSMC were cultured for at least two passages under normal glucose (NG, 5.5 mM) or under HG conditions. VEGF protein expression was determined by Western blotting and VEGF mRNA by Northern blots. HG alone increased the level of VEGF mRNA (2.8-fold) and protein (3.2-fold). […] In addition, HG increased the secretion of VEGF into the medium as measured by a specific EIA (56.2±4 ng/ml NG vs 73±5 HG, p<0.02).

[5] = tested on: 12-HETE in L6 muscle cells; experiment: 12-HETE in L6 muscle cells; type: cell-based, rat; details: n = 2
Method: 6. […] L6 muscle cells are skeletal muscle cells from rats which have been used to investigate the mechanisms of insulin action. When L6 muscle cells are incubated in xylose (5.5, mM), they are much more responsive to insulin when compared to cells in regular glucose (5.5 mM) or high glucose (25 mM). […] Thus, elevated 12-Lipoxygenase products, such as 12-HETE, appear to play an important role in reduced insulin metabolic actions caused by high glucose.

[6] = tested on: 12-LO activity in HSMC; experiment: 12-HETE release and cell-associated 12-HETE in HSMC (HPLC/RIA); type: cell-based, human; details: baicalein 10^−5 mol/L, data not shown
Method: FIG. 3A illustrates the effect of AII on 12-HETE release by HSMC. HSMC were grown to confluency. Serum was removed and cells were incubated in media 199 containing 0.4% fetal bovine serum (FBS) and 0.2% BSA for 18 hours. Cells were then washed with DME media and incubated for 20 minutes in DME media containing 0.2% BSA. AII was added to the cells for five and ten minutes at the concentrations of 10^−9 and 10^−8 mol/L. Media were collected for HETE assay. • *p<0.05 vs control n=4
FIG. 3B illustrates the effect of AII on cell-associated 12-HETE levels in HSMC. After collecting supernatants, cells were washed with ice-cold PBS and harvested by scraping for the assay of cell-associated HETEs. • *p<0.02 vs control n=4
HSMC and HAEC monolayers were washed twice with ice-cold PBS and then processed for RNA extraction or western analysis as described below. For hydroxyeicosatetraenoic acid (HETE) assay, approximately 24 hours prior to an experiment, the medium was replaced with medium 199 containing 0.4% FBS and 0.2% BSA.
These assays were performed using previously published methods (10,11). Briefly, 12- and 15-HETE are extracted from supernatants and cells on C18 mini columns (Analytichem International, CA) and measured using our validated reverse phase gradient HPLC and (RIA) methods.
Another major aspect of this invention is the discovery that AII increases the activity and expression of 12-LO mRNA and protein in HSMC.

[7] = tested on: beta sub-unit of the human insulin receptor; experiment: Insulin receptor phosphorylation in rat-1-fibroblasts containing the human insulin receptor; type: cell-based; details: baicalein 10^−6M, last 24 hours
Method: 7. Baicalein, a selective 12-LO inhibitor, can prevent glucose-induced insulin resistance. To perform these studies, applicants cultured rat-1-fibroblasts that have been engineered to contain the human insulin receptor for ten days in high glucose (25 mM). For the last 24 hours, the cells were cultured with 10^−6M baicalein. The marked bands represent the phosphorylated beta sub-unit of the human insulin receptor (FIG. 23). As the band becomes lighter, it represents reduced insulin action. Lane 1 represents the insulin receptor phosphorylation in normal glucose (5.5 mM) vs the reduced insulin action in lane 5 (25 mM glucose).

[8] = tested on: 12-LO in RINm5F cells; experiment: 12-LO protein, mRNA and activity in RINm5F cells; type: cell-based, rat
Method: FIG. 12 illustrates a western immunoblot of proteins isolated from the insulin producing rat beta cell line, RINm5F showing the effect of interleukin-1β on 12-LO protein expression. In these studies, 25 μg of protein was isolated from the cells grown for 16 hours in reduced serum-containing medium 0.4% alone or along with IL-1β (0.1 ng/ml).
(§1) Applicants have discovered that direct addition of the 12-LO products 12-S-HETE or 12-HPETE directly decreases cellular growth as reflected by decreased ^3H thymidine incorporation or DNA synthesis in the rat pure beta cell line RIN-M5F.
(§2) It has been discovered that IL-1β induces 12-LO protein and mRNA expression in RIN-M5F cells and 12-LO mRNA expression in rat islets.

[9] = tested on: 12-LO in rat pancreatic islets; experiment: 12-HETE production and 12-LO mRNA in rat pancreatic islets; type: cell-based
Text: as §1, §2

[10] = tested on: leukocyte-type 12-LO in PVSMC; experiment: 12-LO activity, mRNA and protein in PVSMC; type: cell-based, porcine; details: 24 hours; for increase in 12-HETE HPLC peak (12-LO enzyme activity): 2.5 ng/ml; for 12-LO mRNA expression in PVSMC: FIG. 14
Method: FIG. 14A illustrates the dose-dependent effect of the cytokine interleukin-1β on 12-LO mRNA expression in porcine aortic smooth muscle cells (PVSMC). Confluent PVSMC growth in normal glucose medium was serum depleted for 24 hours by placing in medium+0.2% BSA+0.4% FCS. This medium was then freshly replaced along with IL-1β and the cells incubated for a further 24 hours. At the end of the incubation, total RNA was extracted from the cells using RNA-STAT. This RNA was the subjected to reverse-transcriptase polymerase chain reaction (RT-PCR) to detect and quantitate leukocyte-type 12-LO mRNA (333 bp PCR product, upper panel) using our well established techniques. The expression of GAPDH mRNA 284 bp, lower panel) was used as an internal control for PCR and for quantitation.
FIG. 14B illustrates the effect of the cytokine IL-4 on 12-LO mRNA expression in PVSMC. The ells were treated for 24 hours with IL-4 and 12-LO mRNA quantitated as described in the legend to FIG. 14A. It is clearly seen that IL-4 also increases 12-LO mRNA expression similar to IL-1β.
FIG. 14C illustrates the effect of the cytokine IL-8 on 12-LO mRNA expression in PVSMC. The cells were treated for 24 hours with IL-8 and 12-LO mRNA quantitated as described under legend 14A.
(§3) The cells were cultured in DME (normal glucose) and treated for 24 hours±cytokines in medium containing 0.2% BSA and 0.4% serum. Intracellular 12-LO enzyme activity was measured by HPLC, leukocyte-type 12-LO protein expression by immunoblotting and 12-LO mRNA by a specific reverse transcriptase polymerase chain reaction (RT-PCR). […] Treatment with these cytokines (0.5-5 ng/ml) also led to an increase (1.4-2.5-fold) in 12-LO protein expression 72 kD). In addition, all three cytokines (2.5 ng/ml) could induce a significant increase in PVSMC DNA synthesis (1.280.08, 1.67±0.11 and 1.3±0.07 fold increase in ^3H thymidine incorporation with IL-1, -4, and -8 respectively, p<0.01).

[11] = tested on: PVSMC; experiment: PVSMC DNA synthesis (3H thymidine incorporation); type: cell-based, porcine; details: 2.5 ng/ml
Method: as §3

[12] = tested on: VEGF protein in MCF-7 cells; experiment: VEGF protein expression in breast cancer cells (immunoblot); type: cell-based, human; details: MCF-7, 24 hours
Method: FIG. 8 illustrates the dose-dependent effect of platelet-derived growth factor (PDGF) on vascular endothelial growth factor (VEGF) protein (42 kD) expression in MCF-7 breast cancer cells. Nearly confluent MCF-7 cells were serum starved for 24 hours by placing in DME medium+0.4% FCS and 0.2% BSA. This medium was then freshly replaced and the cells incubated for another 24 hours with PDGF. At the end of the incubation, the cell monolayers were washed with ice-cold PBS, scraped into PBS and pelleted by centrifugation. The cell pellets were then lysed and equal amounts of protein (50 μg) subjected to electrophoresis and immunoblotting to detect VEGF using a specific antibody from Santa Cruz Biotechnology. Detection was by a chemiluminiscent technique.
FIG. 9 illustrates the effect of epidermal growth factor (EGF) and the 12-lipoxygenase product 12-HETE on VEGF protein expression in the MCF-7 breast cancer cell line MCF-7. MCF-7 cells were treated with EGF and 12-HETE for 24 hours and VEGF protein identified as described in the legend to FIG. 8.

[13] = Calcium gluconate infusion: urinary PGI2 and 12-HETE; type: in vivo, human
Text: Vascular tissue from diabetic animals and man metabolize arachidonic acid differently from normals. PGI2 is a vasodilator, antithrombolic, and renin secretagogue while 12-hydroxyeicosatetraenoic acid (12-HETE) is proinflammatory and inhibits cyclooxygenase (CO). Applicants earlier reported a prostacyclin (PGI2) deficiency in diabetics with hyporeinemic hypoaldosteronism (HH) (46). Applicants explored the production of the CO product, PGI2 and the lipoxygenase (LO) product, 12-HETE in NIDDM patients with normal renal function (NR), those with microalbuminuria (MiA0, macroabluminuria (MaA) and HH patients. PGI2 (6 keto PGF^1) and 12-HETE were measured in urine by HPLC followed by RIA using published methods. Results are:
Low dose calcium infusions have been previously shown to increase PGI2, probably via activation of tissue phospholipases. […] This supports the concept that a defect in prostacyclin formation exists in NIDDM.

[14] = NIDDM patients with microalbuminuria
[15] = normal subjects, three hour infusion

Compound: 12(R)-Hydroxyeicosatrienoic acid
lowest concentration showing effects on MO binding [1]: 10^−12 M

Compound: CCCCC[C@H](O)/C=C/C=C\C/C=C\C/C=C\CCCC(=O)O [15(S)-HETE]
MO binding to HAEC ([1]; 15(S)-HETE 10^−6 to 10^−12M): did not stimulate

AII- and 12-HETE-induced mitogenic activities [2]: dose-dependently reduce
Compound: N#C/C(=C\c1ccc(O)c(O)c1)C(=O)OC/C=C/c1ccccc1 [CDC]
proliferation of MCF-7 cells [3]: significantly inhibited

Compound: O=C[C@H](O)[C@@H](O)[C@H](O)[C@H](O)CO [HG, glucose]
level of VEGF mRNA ([4]; HG alone vs NG 5.5 mM): 2.8 fold
level of VEGF protein ([4]; HG alone vs NG 5.5 mM): 3.2 fold
secretion of VEGF into the medium (EIA) ([4]; HG, NG 56.2±4): 73 ± 5 ng/mL
MO binding ([1]; HAEC in HG 25 mM for two passages, 5.5 mM glucose 111±7): 239±30 cells/field
12-HETE in the cells ([5]; high glucose 25 mM): 620 pg/total cells
12-HETE release in the media ([5]; high glucose 25 mM): 110.3 pg/mL
12-HETE in the cells ([5]; regular glucose 5.5 mM): 472 pg/total cells
12-HETE release in the media ([5]; regular glucose 5.5 mM): 101.8 pg/mL

Compound: CC(Cc1ccc(O)c(O)c1)C(C)Cc1ccc(O)c(O)c1 (stereo not shown) [NDGA]
proliferation of MCF-7 cells [3]: significantly inhibited

Compound: O=C1CCN(c2ccccc2)N1 [Phenidone]
inhibition at 1 µM ([1]; Homo sapiens, Phenidone 10^−6M, read-out: inhibition of HG-induced MO binding): 50%

Compound: O=C[C@H](O)[C@@H](O)[C@H](O)CO [Xylose, xylose]
12-HETE in the cells ([5]; xylose 5.5 mM): 398 pg/total cells
12-HETE release in the media ([5]; xylose 5.5 mM): 53.2 pg/mL

AII- and 12-HETE-induced mitogenic activities [2]: dose-dependently reduce
Compound: O=c1cc(-c2ccccc2)oc2cc(O)c(O)c(O)c12 [baicalein]
12-HETE levels in response to AII [6]: could be reduced
proliferation of MCF-7 cells [3]: significantly inhibited
insulin receptor phosphorylation in 25 mM glucose [7]: restoration of insulin receptor phosphorylation

Compound: CC(C)Cc1ccc(C(C)C(=O)O)cc1 (stereo not shown) [ibuprofen]
proliferation of MCF-7 cells [3]: not

Compound: IL-1β: cytokine interleukin-1β
increase in 12-LO protein expression ([8]; IL-1β 0.1 ng/ml, 16 hours): 2 fold
12-LO pathway activity (radioimmunoassay for 12-HETE) ([8]; RIN-M5F): increased 12-LO pathway activity
12-LO mRNA expression (competitive PCR) ([8]; RIN-M5F, 16 hours): concomitant increase
increase in leukocyte 12-LO protein expression ([8]; human IL-1B at 0.2 ng): approximately two
12-LO mRNA and enzyme activity in purified Sprague-Dawley rat islets [9]: increased expression of 12-LO mRNA and enzyme activity
immunoreactive release of 12-S-HETE ([9]; IL-1B 2.5 ng/ml, basal 92): 250 pg/ml/40 islets
increase in 12-HETE HPLC peak (12-LO enzyme activity) [10]: 51%
12-LO mRNA expression in PVSMC [10]: dose-dependent increase

Compound: IL-4: cytokine IL-4
increase in 12-HETE HPLC peak (12-LO enzyme activity) [10]: 43%
12-LO mRNA expression in PVSMC [10]: increases
increase in 3H thymidine incorporation [11]: 1.67±0.11 fold

Compound: PDGF
VEGF protein expression [12]: dose-dependent increase

Compound: calcium gluconate
12-HETE [13, 14]: further stimulation
PGI2 [13, 14]: no increase
12-HETE [13, 15]: highly significant increase
PGI2 [13, 15]: highly significant increase
